Molecular target: T1, Dual specificity protein kinase TTK (Homo sapiens, UniProt P33981)
T1 sequence (P33981 whole entry): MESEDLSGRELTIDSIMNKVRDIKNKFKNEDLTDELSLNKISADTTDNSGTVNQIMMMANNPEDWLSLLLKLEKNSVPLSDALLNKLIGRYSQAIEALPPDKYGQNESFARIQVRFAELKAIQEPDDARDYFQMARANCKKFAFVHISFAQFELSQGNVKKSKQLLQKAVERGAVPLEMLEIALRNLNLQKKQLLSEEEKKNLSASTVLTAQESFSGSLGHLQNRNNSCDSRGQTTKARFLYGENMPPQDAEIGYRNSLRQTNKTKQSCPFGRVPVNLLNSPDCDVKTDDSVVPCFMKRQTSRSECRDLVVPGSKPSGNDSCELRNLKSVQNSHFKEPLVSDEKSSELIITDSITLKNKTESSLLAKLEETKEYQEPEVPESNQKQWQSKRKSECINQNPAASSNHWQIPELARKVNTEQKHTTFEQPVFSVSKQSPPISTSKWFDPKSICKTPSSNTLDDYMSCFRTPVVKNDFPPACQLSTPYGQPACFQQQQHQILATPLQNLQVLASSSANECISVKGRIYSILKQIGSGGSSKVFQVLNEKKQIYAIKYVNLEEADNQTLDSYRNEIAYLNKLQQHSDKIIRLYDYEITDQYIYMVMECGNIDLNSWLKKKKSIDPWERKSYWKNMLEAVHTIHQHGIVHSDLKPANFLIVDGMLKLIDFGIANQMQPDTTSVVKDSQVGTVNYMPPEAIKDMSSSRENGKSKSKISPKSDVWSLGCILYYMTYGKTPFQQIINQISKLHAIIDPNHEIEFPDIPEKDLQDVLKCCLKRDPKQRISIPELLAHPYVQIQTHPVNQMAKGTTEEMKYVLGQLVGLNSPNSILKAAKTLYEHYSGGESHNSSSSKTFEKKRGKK
Assay: Measurement of Inhibition of MPS1 Kinase
Procedure: The reaction was carried out for 60 min at room temperature and stopped by the addition of buffer (10 μl) containing 20 mM EDTA, 0.05% (v/v) Brij-35, in 0.1M HEPES-buffered saline (Free acid, Sigma, UK). […] The % inhibition of the compounds is calculated relative to the means of selected control wells. […] The % inhibitions at each concentration are then fitted to a 4 parameter logistic fit: y=(a+((b−a)/(1+((c/x^d)))) where a=asym min, b=asym max, c=IC50 and d=hill coefficient.

## COc1cc(-c2nnc3n2CCN(C(=O)CC(C)(C)C)C3)ccc1Nc1cc2cc(-c3cnn(CC(C)(C)O)c3)ccc2cn1 [US10188642, Example 55]
  IC50: 3 nM

From BindingDB's records for patent US10188642 (Cancer Research Technology Limited, 2019)
